Assays:
[1] = tested on: spleen of BALB/c mice; experiment: In vivo delivery of mRNA with CPPs - reporter levels in the spleen
In short: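 CPP/mRNA complexes were formed at the indicated charge ratios in water for 30 min at room temperature, using 10 or 50 μg mRNA, then brought to 5% glucose. Complexes were injected intravenously via the tail vein into BALB/c mice. Spleens were harvested 16 h after the single injection, and luciferase (RLU) was measured in whole-tissue homogenate.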

[2] = tested on: spleen cell subtypes (T cells, macrophages, dendritic cells, rest of the lymphocytes); experiment: Immunophenotyping the spleen cell subtypes post-transfection of mRNA with NF55 in vivo; design: species or system mice; conditions: in words; luciferase mRNA 30 μg, CR2, i.v., 16 h post-injection
Protocol: FIG. 6: Reporter levels detected from spleen cells subtypes collected from NF55/mRNA treated mice. Reporter protein levels were evaluated from the sorted splenocytes: T cells, Macrophages, Dendritic cells and the rest of the lymphocytes. Results are shown as the fold change compared to untreated mice.
To analyse the cell subtypes that were transfected with the CPP, 30 μg of luciferase-encoding mRNA was complexed with the CPP at CR2 in water and injected i.v. 16 h post-injection, the spleens were collected into ice-cold dissociation buffer (1×PBS without Ca^2+ and Mg^2+ supplemented with 2 mM EDTA). Following gentle mechanical dissociation by grinding, splenic cells were strained with 100 μm cell strainer and centrifuged for 5 min at +4 °C, 300×g. A 2-minute incubation with 1 ml of RBC lysis buffer ACK (Thermo) was used for the red blood cell lysis. Flow cytometry buffer (dissociation buffer supplemented with 0.5% (w/v) BSA) was added, cells were centrifuged for 5 min at +4 °C, 300×g and counted. […]
In order to determine to which types of spleen cells mRNA were transfected in vivo, cells collected from the spleens of transfected animals were sorted according to their subtype and the reporter expression measured. mRNA encoding luciferase (mRNA (luc)) was used as a reporter model.

[3] = in words; previously reported; cited from earlier work
[4] = tested on: liver, spleen, lung, kidney, heart and thymus of Balb/c mice; experiment: Biodistribution of reporter levels post-transfection of mRNA or pDNA with CPPs in vivo (tissue homogenate)
Protocol: FIG. 3: Biodistribution of reporter levels post-transfection of mRNA or pDNA with NFs or PFs CPPs in vivo. Reporter gene product levels were evaluated from the whole tissue homogenates collected post mortem. Results are shown as the fold change to mRNA or pDNA treated mice.
The transfection complexes (CPP/mRNA) were formed using 10 μg of mRNA mixed with each peptide at indicated charge ratios (CRs) in MQ water in a final volume of 100 μl. CRs were calculated theoretically and account for both the positive charges of the peptide and negative charges of the nucleic acid. The transfection complexes (CPP/mRNA and CPP/pDNA) were formed using 50 μg of mRNA mixed with each peptide at indicated charge ratios (CRs) in MQ water in a final volume of 168 μl. The complexes were incubated for 30 minutes at room temperature and then mixed with equal volume of 10% glucose (resulting in a final solution of 5% glucose in a total volume of 200 μl for 10 μg dose groups and 336 μl for 50 μg dose groups) and immediately injected intravenously via the tail vein.
The reporter gene (luciferase) expression levels were evaluated from the tissue homogenate post mortem 16-24 h after single injection.
In order to determine to which organs in vivo mRNAs may be delivered to with NickFect or PepFect CPPs, mRNA complexes with NF55, NF71 and PF14 were formed and injected through the tail vein of Balb/c mice (FIG. 3A). The organs were harvested 24 hours after the single injection and reporter signal was measured from whole tissue homogenates. The biodistribution of reporter levels was measured in liver, spleen, lung, kidney, heart and thymus.
In order to compare the biodistribution profiles between harvested organs when using either mRNA or pDNA as cargo, NF424 was used to transfect these 2 types of nucleic acids in vivo (FIG. 3B and Table 4).

[5] = mRNA delivery, i.v. tail vein, 24 h after single injection, FIG. 3: fold change to mRNA or pDNA treated mice

For `CCCCCCCCCCCCCCCCCC(=O)N[C@@H](C)C(=O)NCC(=O)N[C@@H](Cc1ccc(O)cc1)C(=O)N[C@@H](CC(C)C)C(=O)N[C@@H](CC(C)C)C(=O)NCC(=O)NCCC[C@H](N)C(=O)N[C@H](C(=O)N[C@@H](CC(N)=O)C(=O)N[C@@H](CC(C)C)C(=O)N[C@@H](CCCCN)C(=O)N[C@@H](C)C(=O)N[C@@H](CC(C)C)C(=O)N[C@@H](C)C(=O)N[C@@H](C)C(=O)N[C@@H](CC(C)C)C(=O)N[C@@H](C)C(=O)N[C@@H](CCCCN)C(=O)N[C@@H](C)C(=O)N[C@H](C(=O)N[C@@H](CC(C)C)C(N)=O)[C@@H](C)CC)[C@@H](C)CC` [NF55], the “Efficacy of mRNA delivery into the spleen in vivo” value ([1]; in words, FIG. 5 / Table 5) was “delivered mRNA into the spleen in vivo with high efficacy”, the “Reporter levels in the spleen (RLU)” value ([1]; mRNA, tail vein injection, spleens harvested 16 hours after single injection, whole tissue homogenate) was 124 363 RLU and the “Reporter signal in spleen cell subtypes” value [2] was “the majority of the reporter signal arose from the dendritic cells (DCs)”. The pDNA delivery efficiency [3] was “excellent vector for the delivery of DNA in vivo”, the “Organ distribution of mRNA delivery” value ([4]; in words, mRNA cargo) was “much higher than in any other organ” and the “Reporter level, Liver” value [4, 5] was 284. For the same molecule, the “Reporter level, Lung” value [4, 5] was 23 465, the “Reporter level, Spleen” value [4, 5] was 79 879 and the “Delivery of mRNA to the spleen relative to delivery to the lungs” value ([4]; mRNA, 24 h after single i.v. injection) was 3.5 times.

— patent publication US20260355330A1, “CELL PENETRATING PEPTIDES AND USES THEREOF” (VECTIOPEP OÜ, priority 2022, published 2026)
